Test results taken from ChEMBL document CHEMBL1806426, “Simple but powerful: phenanthroline-based small molecules for cellular imaging and cancer screening” (Bioorg Med Chem Lett, 2011).

Tests used:
[1] = Solubility of the compound in phosphate buffer solution at pH7.4; type: physicochemical; conditions: pH 7.4
[2] = Cytotoxicity against human HET-1A cells assessed as cell survival after 24 hrs by MTT assay; type: cell-based
[3] = Drug uptake in human OE21 endoplasmic reticulum at 27 uM after 20 mins by confocal microscopy; type: ADME
[4] = Drug uptake in human OE21 endoplasmic reticulum at 9 uM after 5 mins by confocal microscopy; type: ADME
[5] = Ratio of IC50 for cytotoxicity against human HET-1A cells to IC50 for cytotoxicity against human OE21 cells; type: toxicity, cell-based; conditions: HET-1A cells and OE21 cells, read-out: Ratio IC50
[6] = Cytotoxicity against human OE21 cells assessed as cell survival after 24 hrs by MTT assay; type: functional, cell-based; conditions: OE21, 24 h
[7] = Drug uptake in human OE21 endoplasmic reticulum assessed as fluorescence intensity at 18 uM after 20 mins to 2 hrs by confocal microscopy; type: ADME
[8] = Drug uptake in human HET-1A endoplasmic reticulum after 20 mins to 2 hrs by confocal microscopy; type: ADME
[9] = Drug uptake in human HET-1A endoplasmic reticulum after 5 mins by confocal microscopy; type: ADME

solubility [1] | Drug uptake [3] | Drug uptake [4] | Drug uptake [7] | Drug uptake [8] | Drug uptake [9] | Structure (SMILES) | IC50 [2] [µM] | selectivity ratio [5] | IC50 [6] [nM]
soluble | Active | Active | Active | Active | – | Brc1ccc(-c2nc3c4cccnc4c4ncccc4c3[nH]2)cc1 | 3.15 | 4 | 770
soluble | Active | Active | Active | Active | Active | C[Si](C)(C)C#Cc1ccc(-c2nc3c4cccnc4c4ncccc4c3[nH]2)cc1 | 3.02 | 7 | 440
